Test results taken from ChEMBL document CHEMBL1201862, “PubChem BioAssay data set” (2004).
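Five concentrations, 48 hours, 96-well plates. Here, GI50 denotes the concentration required for 50% inhibition of growth.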 Active and inactive are the calls of the source. Cut-off read from the data, not from the text of the source: active = GI50 up to about 1.1 µM and inactive = higher.

Experiments:
Assay in all cases: inhibition of tumour cell growth, NCI panel, 48 h
A498 = system: A498
A549 = system: A549
ACHN = system: ACHN
HOP-62 = system: HOP-62
HT-29 = system: HT-29
K562 = system: K562
KM12 = system: KM12
Malme-3M = system: Malme-3M
NCI-H226 = system: NCI-H226
NCI-H23 = system: NCI-H23
OVCAR-5 = system: OVCAR-5
SF-295 = system: SF-295
SK-MEL-2 = system: SK-MEL-2
UACC-257 = system: UACC-257
UO-31 = system: UO-31
RXF 393 = system: RXF 393

Measured: GI50

Cc1ccc(/N=N/C(C(=O)c2ccccc2)C(=O)c2ccccc2)cc1
inactive: A498 27.4 µM | A549 27.3 µM | ACHN 26.6 µM | HOP-62 21.1 µM | HT-29 22 µM | K562 17.7 µM | KM12 36.1 µM | Malme-3M 29.9 µM | NCI-H226 17.6 µM | NCI-H23 20.5 µM | OVCAR-5 22.2 µM | SF-295 24.7 µM | SK-MEL-2 19.5 µM | UACC-257 29.4 µM | UO-31 14.8 µM

CCOC(=O)C12CCCC1(O)N(NC(N)=O)C(C)=C2C(=O)OC (centres undefined)
inactive: A498 > 100 µM | A549 > 100 µM | ACHN > 100 µM | HOP-62 > 100 µM | HT-29 > 100 µM | K562 > 100 µM | KM12 > 100 µM | Malme-3M > 100 µM | NCI-H226 > 100 µM | NCI-H23 > 100 µM | OVCAR-5 > 100 µM | SF-295 > 100 µM | SK-MEL-2 > 100 µM | UACC-257 > 100 µM | UO-31 > 100 µM

COC(=O)c1ccc(C=C(C#N)C#N)cc1
inactive: A498 > 100 µM | A549 > 100 µM | ACHN 25 µM | HOP-62 27 µM | HT-29 33.4 µM | K562 23.2 µM | KM12 31.6 µM | Malme-3M 20.7 µM | NCI-H226 24 µM | NCI-H23 19.4 µM | OVCAR-5 > 100 µM | SF-295 32.4 µM | SK-MEL-2 18.4 µM

O=C1[C@@H]2C(c3ccccc3Br)=NO[C@@H]2C(=O)N1c1ccc(Cc2ccc(N3C(=O)[C@H]4C(c5ccccc5Br)=NO[C@H]4C3=O)cc2)cc1
inactive: A498 > 100 µM | A549 > 100 µM | ACHN > 100 µM | HOP-62 > 100 µM | HT-29 > 100 µM | K562 > 100 µM | KM12 > 100 µM | Malme-3M > 100 µM | NCI-H226 96.4 µM | NCI-H23 > 100 µM | OVCAR-5 > 100 µM | RXF 393 50.2 µM | SF-295 > 100 µM | SK-MEL-2 > 100 µM | UACC-257 > 100 µM | UO-31 54.8 µM

CC1=CCC23C(C1)OC(Br)(C=CC2(C)O)C3(C)C (centres undefined)
inactive: A498 > 100 µM | A549 > 100 µM | ACHN > 100 µM | HT-29 > 100 µM | K562 > 100 µM | KM12 > 100 µM | Malme-3M > 100 µM | NCI-H226 > 100 µM | NCI-H23 > 100 µM | OVCAR-5 > 100 µM | SF-295 > 100 µM | SK-MEL-2 > 100 µM | UACC-257 > 100 µM

O=C(N/C(=C\c1ccc(Cl)cc1)c1nc2ccccc2[nH]1)c1ccccc1
inactive: A498 21.8 µM | A549 25.4 µM | ACHN 27.5 µM | HT-29 27.8 µM | K562 15.1 µM | KM12 16.8 µM | Malme-3M 34 µM | NCI-H226 22.2 µM | NCI-H23 18.3 µM | OVCAR-5 37.2 µM | RXF 393 18.4 µM | SK-MEL-2 19.1 µM | UACC-257 19.2 µM | UO-31 18.8 µM

CCN1C2=NC(=O)N(C)C(=O)C2(Cl)C(C(SC)S(=O)(=O)c2ccc(C)cc2)c2ccccc21 (centres undefined)
inactive: A498 > 100 µM | A549 85.1 µM | HOP-62 > 100 µM | HT-29 34.8 µM | K562 20.7 µM | Malme-3M 47.3 µM | NCI-H226 32.4 µM | NCI-H23 20 µM | OVCAR-5 > 100 µM | SF-295 51.8 µM | SK-MEL-2 55.3 µM | UACC-257 23.6 µM | UO-31 19.9 µM
